Laboratory results: patent publication CN114573468A, “蛋白抑制剂及其应用” (priority 2022, dated 2022)

Experiments:
[1] = tested on: breast cancer 4T1.2-luc cells (乳腺癌4T1.2-luc细胞); test: Bioluminescence imaging in mouse breast cancer bone metastasis model; format: in vivo; details: 0.44mg/ml epirubicin alone, i.p., 5ml/kg, every 3 days
[2] = tested on: breast cancer 4T1.2-luc cells (乳腺癌4T1.2-luc细胞); test: X-ray CT of hind limb bones in mouse bone metastasis model; format: in vivo; details: 0.44mg/ml epirubicin alone, i.p.
[3] = tested on: breast cancer 4T1.2-luc cells (乳腺癌4T1.2-luc细胞); test: HE staining of bone sections in mouse bone metastasis model; format: in vivo; details: 0.44mg/ml epirubicin alone; Fig. 7H
osteoclasts (破骨细胞) = test: TRAP staining (osteoclasts) of bone sections in mouse bone metastasis model; format: in vivo; details: Fig. 7N
[4] = biological target: T1, recombinant human legumain (重组人legumain蛋白(rhLegumain)) (Homo sapiens, UniProt Q99538); test: AEP activity assay with recombinant human legumain, substrate Z-AAN-AMC; format: biochemical; details: Fig. 2E
T1 construct: 30ng/μl活化的rhLegumain在测定缓冲液; purchased 2199-CY
T1 sequence (Q99538 18-323 limits assumed): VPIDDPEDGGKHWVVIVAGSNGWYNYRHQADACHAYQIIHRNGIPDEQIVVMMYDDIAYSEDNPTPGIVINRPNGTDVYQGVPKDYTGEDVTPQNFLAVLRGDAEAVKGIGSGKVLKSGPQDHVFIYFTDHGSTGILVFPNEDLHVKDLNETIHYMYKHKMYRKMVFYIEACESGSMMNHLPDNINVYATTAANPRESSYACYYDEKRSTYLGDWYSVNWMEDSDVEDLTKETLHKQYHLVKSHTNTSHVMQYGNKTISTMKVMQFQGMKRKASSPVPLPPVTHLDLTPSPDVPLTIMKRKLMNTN

[5] = biological target: T2, endogenous AEP of 293L cells (293L细胞, AEP的内源性酶活性) (Homo sapiens, UniProt Q99538); test: Endogenous AEP activity in cell lysate and medium of 293L cells; format: cell-based; details: 293L cells cultured with different doses of inhibitor
T2 construct: 验证抑制剂是否能有效抑制AEP的内源性酶活性; endogenous in cells; host or cells: 293L cells
T2 sequence (Q99538 18-433): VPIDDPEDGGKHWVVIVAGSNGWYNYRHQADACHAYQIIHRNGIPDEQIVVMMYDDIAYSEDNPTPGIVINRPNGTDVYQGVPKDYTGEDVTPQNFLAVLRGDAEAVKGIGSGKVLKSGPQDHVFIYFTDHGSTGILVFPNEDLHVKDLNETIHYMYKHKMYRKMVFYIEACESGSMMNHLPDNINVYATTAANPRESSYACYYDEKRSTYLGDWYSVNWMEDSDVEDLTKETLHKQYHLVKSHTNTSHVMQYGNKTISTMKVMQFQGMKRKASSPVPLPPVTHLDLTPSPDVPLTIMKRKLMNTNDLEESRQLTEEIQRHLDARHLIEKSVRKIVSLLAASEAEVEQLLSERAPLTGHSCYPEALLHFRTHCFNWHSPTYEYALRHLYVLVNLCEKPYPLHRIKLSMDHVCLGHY

[6] = tested on: AEP (breast cancer 4T1.2 cells, 乳腺癌4T1.2细胞); test: Immunoblot of AEP expression in 4T1.2 cells; format: cell-based, mouse; details: 1 μM, 96h, vs control (0nM), p<0.05
E-cadherin = test: Immunoblot of E-cadherin expression in 4T1.2 cells (EMT); format: cell-based, mouse; details: 100nM and 1μM, 96h
Snail = test: Immunoblot of Snail expression in 4T1.2 cells (EMT); format: cell-based, mouse; details: 100nM and 1μM, 96h
MMP-9 = test: Immunoblot of MMP-9 expression in 4T1.2 cells (EMT); format: cell-based, mouse; details: 100nM and 1μM, 96h
4T1.2 cells (4T1.2细胞) = test: Cell scratch (migration) assay, 4T1.2; format: cell-based, mouse; details: 4T1.2, scratch assay, concentration-dependent
[7] = tested on: breast cancer MDA-MB-231 cells (乳腺癌MDA-MB-231细胞); test: Cell scratch (migration) assay, MDA-MB-231; format: cell-based, human; details: MDA-MB-231, scratch assay, concentration-dependent
[8] = tested on: breast cancer 4T1.2 cells (乳腺癌4T1.2细胞); test: Transwell Matrigel invasion assay, 4T1.2; format: cell-based, mouse; details: 4T1.2, Transwell Matrigel, 12h, concentration-dependent
[9] = tested on: breast cancer 4T1.2 cells (乳腺癌4T1.2细胞); test: Survival of BALB/C mice with subcutaneous 4T1.2 tumors; format: in vivo, mouse; details: inhibitor given in combination with 0.44mg/ml epirubicin
[10] = tested on: human breast cancer cells MDA-MB-231 (人乳腺癌细胞MDA-MB-231)
[11] = tested on: mouse highly metastatic breast cancer cells 4T1.2 (小鼠高转移性乳腺癌细胞4T1.2)

Compound	bone tumor growth (bioluminescence) [1]	bone structure and bone erosion (X-ray CT) [2]	tumor cell invasion of bone tissue (HE staining) [3]	increase in osteoclast number in the epirubicin group compared with the 2 inhibitor-treated groups (osteoclasts (破骨细胞); 0.44mg/ml epirubicin alone)	AEP enzyme activity over time ([4]; 100nM inhibitor vs control (0nM), p<0.05, pH5.0)	AEP enzyme activity over time ([4]; 1 μM inhibitor vs control (0nM), p<0.01, pH5.0)	AEP enzyme activity in cell culture medium [5]	decrease of AEP expression [6] [%]	E-cadherin expression (E-cadherin)	Snail expression (Snail)	MMP-9 expression (MMP-9)	cell migration ability (4T1.2 cells (4T1.2细胞))	cell migration ability [7]	number of invading cells [8]	survival of tumor mice [9]	increase in osteoclast number in the control group compared with the 2 inhibitor-treated groups (osteoclasts (破骨细胞); control (PBS) relative to groups given epirubicin + inhibitor)	cell viability / growth compared with control [10]	cell viability / growth compared with control [11]
COc1cccc2c1C(=O)c1c(O)c3c(c(O)c1C2=O)C[C@@](O)(C(=O)CO)C[C@@H]3O[C@H]1C[C@H](N)[C@@H](O)[C@H](C)O1 [表柔比星]	所有小鼠的胫骨近端、股骨或背侧脊柱都有肿瘤生长	骨结构不完整,存在骨侵蚀	肿瘤细胞突破了骨组织,呈现侵袭状	3.6 倍 (fold)	–	–	–	–	–	–	–	–	–	–	–	–	–	–
CH2CH[N(CH2CH3)2]CON(COCH2Cl)CH2CONH2 [化合物①]	–	–	–	–	显著抑制	显著抑制	能够以剂量依赖性方式抑制	82.31	表达上调	表达下调	表达下调	减弱	减弱	减少各细胞的侵袭细胞数目	明显延长	4 倍 (fold)	与对照组相差很小	与对照组相差很小
